This assay concerns the target T1, ZAP-70 (Homo sapiens, UniProt P43403).
T1 sequence (P43403 1-619): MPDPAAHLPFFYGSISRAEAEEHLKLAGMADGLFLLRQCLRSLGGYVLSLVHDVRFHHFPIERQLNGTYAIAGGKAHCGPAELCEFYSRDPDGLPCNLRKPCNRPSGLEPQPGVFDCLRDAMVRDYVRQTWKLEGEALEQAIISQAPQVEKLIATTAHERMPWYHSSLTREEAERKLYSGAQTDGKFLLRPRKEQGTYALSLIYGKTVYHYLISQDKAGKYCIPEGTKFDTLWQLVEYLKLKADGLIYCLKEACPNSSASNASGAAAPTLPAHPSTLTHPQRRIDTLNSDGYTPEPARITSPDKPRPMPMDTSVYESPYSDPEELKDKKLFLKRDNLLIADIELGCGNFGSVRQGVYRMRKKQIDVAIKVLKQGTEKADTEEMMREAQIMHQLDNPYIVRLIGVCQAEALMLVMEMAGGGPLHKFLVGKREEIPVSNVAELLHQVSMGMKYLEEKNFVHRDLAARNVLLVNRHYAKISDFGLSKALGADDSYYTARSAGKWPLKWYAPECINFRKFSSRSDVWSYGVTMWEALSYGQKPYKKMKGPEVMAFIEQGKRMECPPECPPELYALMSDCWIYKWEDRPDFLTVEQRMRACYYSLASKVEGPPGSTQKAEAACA
Kind of assay: DELFIA assay (ZAP-70 kinase, phosphorylation of biotinylated poly(glu,tyr)). The following applies: ZAP-70 DELFIA, read-out: Activity (IC50 in vitro). The format is biochemical. The essentials: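 3.1 nM ZAP-70 pre-incubated 10 min at room temperature with compound ([…]) and 62.5 nM biotinylated poly(glu,tyr) in 62.5 mM Mops pH 7.0, 12.5 mM MgCl2, 12.5% glycerol, 6.25% DMSO (pre-incubation concentrations); ATP added from 5 mM stock, 30 min reaction, EDTA stop. Phosphorylation read by DELFIA europium anti-phosphotyrosine fluorescence (340/615).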

The structures appear in SMILES notation. Read-outs that look alike come from different tables or passages of the source.

For orientation: IC50 means the concentration needed to halve the response being measured. For `N#Cc1ccc(-c2ccc3nc(NCC4(c5ccc(Cl)cc5)CC4)cc(C(=O)N4CCC[C@H]4CN4CCCC4)c3c2)cc1` [Compound 260], for the setting “class symbols”, the IC50 is more than 10 µM. Regarding `N#Cc1ccc(-c2ccc3nc(N4CCC(c5ccc(Cl)cc5)C4)cc(C(=O)N4CCC[C@H]4CN4CCCC4)c3c2)cc1` (stereo partly shown) [Compound 261], the IC50 (class symbols) was more than 10 µM. The same measure, in the same setting: the result for `N#Cc1ccc(-c2ccc3nc(N4CCC(c5ccccc5F)C4)cc(C(=O)N4CCC[C@H]4CN4CCCC4)c3c2)cc1` (stereo partly shown) [Compound 262] reads more than 10 µM; that for `N#Cc1ccc(-c2ccc3nc(N4CCC(c5cccc(F)c5)C4)cc(C(=O)N4CCC[C@H]4CN4CCCC4)c3c2)cc1` (stereo partly shown) [Compound 263], more than 10 µM; that for `N#Cc1ccc(-c2ccc3nc(N4CCC(c5ccc(F)cc5)C4)cc(C(=O)N4CCC[C@H]4CN4CCCC4)c3c2)cc1` (stereo partly shown) [Compound 264], more than 10 µM. The same measure, in the same setting: the result for `N#Cc1ccc(-c2ccc3nc(N4CCCC(c5ccccc5)C4)cc(C(=O)N4CCC[C@H]4CN4CCCC4)c3c2)cc1` (stereo partly shown) [Compound 265] reads more than 10 µM; that for `N#Cc1ccc(-c2ccc3nc(N4CCCC(c5ccc(C(F)(F)F)cc5)C4)cc(C(=O)N4CCC[C@H]4CN4CCCC4)c3c2)cc1` (stereo partly shown) [Compound 266], more than 10 µM.

With `N#Cc1ccc(-c2ccc3nc(N4CCCC(c5ccccc5F)C4)cc(C(=O)N4CCC[C@H]4CN4CCCC4)c3c2)cc1` (stereo partly shown) [Compound 267], the IC50 (class symbols) is more than 10 µM. Still for that read-out and setting: with `N#Cc1ccc(-c2ccc3nc(N4CCCC(c5cccc(F)c5)C4)cc(C(=O)N4CCC[C@H]4CN4CCCC4)c3c2)cc1` (stereo partly shown) [Compound 268] the figure was more than 10 µM. Same read-out and setting: the result for `N#Cc1ccc(-c2ccc3nc(N4CCCC(c5cccc(C(F)(F)F)c5)C4)cc(C(=O)N4CCC[C@H]4CN4CCCC4)c3c2)cc1` (stereo partly shown) [Compound 269] reads more than 10 µM; that for `N#Cc1ccc(-c2ccc3nc(NCc4cccs4)cc(C(=O)N4CCC[C@H]4CN4CCCC4)c3c2)cc1` [Compound 270], more than 10 µM. The same measure, in the same setting: with `Cc1ccsc1CNc1cc(C(=O)N2CCC[C@H]2CN2CCCC2)c2cc(-c3ccc(C#N)cc3)ccc2n1` [Compound 271] the figure was more than 10 µM; with `N#Cc1ccc(-c2ccc3nc(NCC4(c5cccs5)CC4)cc(C(=O)N4CCC[C@H]4CN4CCCC4)c3c2)cc1` [Compound 272], more than 10 µM; with `CN(CCc1cccs1)c1cc(C(=O)N2CCC[C@H]2CN2CCCC2)c2cc(-c3ccc(C#N)cc3)ccc2n1` [Compound 273], more than 10 µM. Consider `O=C(c1cc(CCc2ccccc2)nc(CCc2ccccc2)c1)N1CCC[C@H]1CN1CCCC1` [Compound 274], for which, where the note is “class symbols”, the 50% inhibitory concentration (IC50) is more than 10 µM.

For the compound `CN(Cc1ccccc1)c1cc(C(=O)N2CCC[C@H]2CN2CCCC2)cc(-c2ccccc2)n1` [Compound 275], for the setting “class symbols”, the half-maximal inhibitory concentration (IC50) was more than 10 µM. In the case of `CN(Cc1ccccc1)c1cc(C(=O)N2CCC[C@H]2CN2CCCC2)cc(-c2ccc3c(c2)OCO3)n1` [Compound 276], the concentration for half-maximal inhibition (IC50) (class symbols) is more than 10 µM. Turning to `CCCCCCc1cc(C(=O)N2CCC[C@H]2CN2CCCC2)cc(N(C)Cc2ccccc2)n1` [Compound 277], the IC50 (class symbols) was more than 10 µM.

For the compound `CN(Cc1ccccc1)c1cc(C(=O)N2CCC[C@H]2CN2CCCC2)cc(/C=C/c2ccc(C(F)(F)F)cc2)n1` [Compound 278], the IC50 (class symbols) is more than 10 µM. Same read-out and setting: with `CN(Cc1ccccc1)c1cc(C(=O)N2CCC[C@H]2CN2CCCC2)cc(/C=C/c2ccccc2)n1` [Compound 279] the figure was more than 10 µM; with `O=C(c1cc(NCc2ccc(C(F)(F)F)cc2)nc2ccc(-c3ccc4c(c3)OCC4)cc12)N1CCC[C@H]1CN1CCCC1` [Compound 280], less than 1 µM; with `O=C(c1cc(NCc2ccc(C(F)(F)F)cc2)nc2ccc(C#Cc3ccccc3)cc12)N1CCC[C@H]1CN1CCCC1` [Compound 281], less than 1 µM. The same measure, in the same setting: with `COc1ccc(C#Cc2ccc3nc(NCc4ccc(C(F)(F)F)cc4)cc(C(=O)N4CCC[C@H]4CN4CCCC4)c3c2)cc1` [Compound 282] the figure was 1 to 10 µM; with `O=C(c1cc(NCc2ccc(C(F)(F)F)cc2)nc2ccc(C#Cc3ccc(Cl)cc3)cc12)N1CCC[C@H]1CN1CCCC1` [Compound 283], less than 1 µM; with `O=C(c1cc(NCc2ccc(C(F)(F)F)cc2)nc2ccc(C#Cc3cccc(C(F)(F)F)c3)cc12)N1CCC[C@H]1CN1CCCC1` [Compound 284], less than 1 µM.

For the compound `O=C(c1cc(NCc2ccc(C(F)(F)F)cc2)nc2ccc(CCc3ccccc3)cc12)N1CCC[C@H]1CN1CCCC1` [Compound 285], under “class symbols”, the IC50 was 1 to 10 µM. Same read-out and setting: the result for `O=C(c1cc(NCc2ccc(C(F)(F)F)cc2)nc2ccc(/C=C/c3ccc(Cl)cc3)cc12)N1CCC[C@H]1CN1CCCC1` [Compound 286] reads less than 1 µM.

For the compound `O=C(c1cc(NCc2ccc(C(F)(F)F)cc2)nc2ccc(CCc3ccc(Cl)cc3)cc12)N1CCC[C@H]1CN1CCCC1` [Compound 287], where the note is “class symbols”, the IC50 was 1 to 10 µM. Still for that read-out and setting: with `O=C(c1cc(NCc2ccc(C(F)(F)F)cc2)nc2ccc(/C=C/c3cccc(C(F)(F)F)c3)cc12)N1CCC[C@H]1CN1CCCC1` [Compound 288] the figure was 1 to 10 µM; with `O=C(c1cc(NCc2ccc(C(F)(F)F)cc2)nc2ccc(CCc3cccc(C(F)(F)F)c3)cc12)N1CCC[C@H]1CN1CCCC1` [Compound 289], 1 to 10 µM. As to `O=C(c1cc(NCc2ccc(C(F)(F)F)cc2)nc2ccc(/C=C/c3ccccc3)cc12)N1CCC[C@H]1CN1CCCC1` [Compound 290], under “class symbols”, the IC50 lay within 1 to 10 µM. As for `CCCCc1ccc2nc(NCc3ccc(C(F)(F)F)cc3)cc(C(=O)N3CCC[C@H]3CN3CCCC3)c2c1` [Compound 291], the IC50 (class symbols) is more than 10 µM. As for `O=C(c1cc(NCc2ccc(C(F)(F)F)cc2)nc2ccc(-c3cc(Cl)cc(Cl)c3)cc12)N1CCC[C@H]1CN1CCCC1` [Compound 292], the IC50 (class symbols) was less than 1 µM. Same read-out and setting: the result for `O=C(c1cc(NCc2ccc(C(F)(F)F)cc2)nc2ccc(-c3cccs3)cc12)N1CCC[C@H]1CN1CCCC1` [Compound 293] reads 1 to 10 µM; that for `O=C(c1cc(NCc2ccc(C(F)(F)F)cc2)nc2ccc(-c3ccsc3)cc12)N1CCC[C@H]1CN1CCCC1` [Compound 294], less than 1 µM. The same measure, in the same setting: with `O=C(c1cc(NCc2ccc(C(F)(F)F)cc2)nc2ccc(-c3cccc(C(F)(F)F)c3)cc12)N1CCC[C@H]1CN1CCCC1` [Compound 295] the figure was 1 to 10 µM; with `O=C(c1cc(NCc2ccc(C(F)(F)F)cc2)nc2ccc(-c3ccc(C(F)(F)F)cc3)cc12)N1CCC[C@H]1CN1CCCC1` [Compound 296], 1 to 10 µM.

Take `CC(=O)Nc1cccc(-c2ccc3nc(NCc4ccc(C(F)(F)F)cc4)cc(C(=O)N4CCC[C@H]4CN4CCCC4)c3c2)c1` [Compound 297]: the IC50 (class symbols) was more than 10 µM. The same measure, in the same setting: with `O=C(c1cc(NCc2ccc(C(F)(F)F)cc2)nc2ccc(-c3cc4ccccc4s3)cc12)N1CCC[C@H]1CN1CCCC1` [Compound 298] the figure was 1 to 10 µM; with `CC(=O)c1ccc(-c2ccc3nc(NCc4ccc(C(F)(F)F)cc4)cc(C(=O)N4CCC[C@H]4CN4CCCC4)c3c2)s1` [Compound 299], less than 1 µM. On the same count and under the same terms, with `O=C(c1cc(NCc2ccc(C(F)(F)F)cc2)nc2ccc(-c3csc4ccccc34)cc12)N1CCC[C@H]1CN1CCCC1` [Compound 300] the figure was less than 1 µM. As for `Cc1ccc(-c2ccc3nc(NCc4ccc(C(F)(F)F)cc4)cc(C(=O)N4CCC[C@H]4CN4CCCC4)c3c2)s1` [Compound 301], for the setting “numeric value”, the IC50 was found to be 1.78 µM. Consider `O=C(c1cc(NCc2ccc(C(F)(F)F)cc2)nc2ccc(-c3ccc(F)cc3)cc12)N1CCC[C@H]1CN1CCCC1` [Compound 302], for which the IC50 (class symbols) is less than 1 µM. On the same count and under the same terms, the result for `O=C(c1cc(NCc2ccc(C(F)(F)F)cc2)nc2ccc(-c3ccc(F)c(Cl)c3)cc12)N1CCC[C@H]1CN1CCCC1` [Compound 303] reads less than 1 µM; that for `O=C(c1cc(NCc2ccc(C(F)(F)F)cc2)nc2ccc(-c3cccc(F)c3)cc12)N1CCC[C@H]1CN1CCCC1` [Compound 304], 1 to 10 µM; that for `O=C(c1cc(NCc2ccc(C(F)(F)F)cc2)nc2ccc(-c3ccc(Cl)cc3)cc12)N1CCC[C@H]1CN1CCCC1` [Compound 305], less than 1 µM. Same read-out and setting: the result for `O=C(c1cc(NCc2ccc(C(F)(F)F)cc2)nc2ccc(-c3cccc(Cl)c3)cc12)N1CCC[C@H]1CN1CCCC1` [Compound 306] reads less than 1 µM; that for `O=C(c1cc(NCc2ccc(C(F)(F)F)cc2)nc2ccc(-c3ccc(F)cc3F)cc12)N1CCC[C@H]1CN1CCCC1` [Compound 307], 1 to 10 µM; that for `O=C(c1cc(NCc2ccc(C(F)(F)F)cc2)nc2ccc(-c3ccccc3F)cc12)N1CCC[C@H]1CN1CCCC1` [Compound 308], 1 to 10 µM.

Take `O=C(c1cc(NCc2ccc(C(F)(F)F)cc2)nc2ccc(-c3ccc(OC(F)(F)F)cc3)cc12)N1CCC[C@H]1CN1CCCC1` [Compound 309]: for the setting “class symbols”, the concentration for half-maximal inhibition (IC50) is 1 to 10 µM. The same measure, in the same setting: the result for `O=C(c1cc(NCc2ccc(C(F)(F)F)cc2)nc2ccc(-c3cccc(OC(F)(F)F)c3)cc12)N1CCC[C@H]1CN1CCCC1` [Compound 310] reads less than 1 µM; that for `CS(=O)(=O)c1ccc(CNc2cc(C(=O)N3CCC[C@H]3CN3CCCC3)c3cc(-c4ccc(C#N)cc4)ccc3n2)cc1` [Compound 311], 1 to 10 µM.

The values are drawn from patent US20080119515A1, “Heterocyclic Kinase Inhibitors: Methods of Use and Synthesis” (priority 2003, published 2008).
